Source: article PMC10733463, “Berberine-microbiota interplay: orchestrating gut health through modulation of the gut microbiota and metabolic transformation into bioactive metabolites” (Frontiers in Pharmacology, 2023)

Tests used:
CD3+ T-cells = experiment: CD3 immunohistochemistry of duodenal tissue; type: in vivo, Ross 308 broiler chickens; details: duodenum, 21 days
Text: The study was undertaken following the guidelines of the ethics committee of the Faculty of Veterinary Medicine and Bioscience Engineering, Ghent University, in accordance with the EU Directive 2010/63/EU. […] They were allotted into 4 groups, with three replicate pens per group each housing 8 chickens. The animals were not vaccinated. Water and commercial starter feed (day 1-12, FARM 1 Mash, Country's Best, […], Belgium) or grower (day 13-21, FARM 2 mash, Country's Best, […], Belgium) were provided ad libitum. […] At day 21, 4 birds per pen were weighted then euthanized by sodium pentobarbital injection for sampling. […] Additionally, ileal and caecal content samples were collected and stored at -20°C for berberine and berberine-derived metabolite quantification. […] Slides for immunohistochemical staining for CD3^+ T-cells were automatically deparaffinized (Shandon […]-Gemini) before antigen retrieval with a pressure cooker in citrate buffer (10 mM, pH 6). Endogenous peroxidase activity was blocked by treating the slides with peroxidase blocking reagent ([…], Dako, Glostrup, Denmark) for 5 min. The presence of T-cells (CD3-positive cell abundance) in duodenal tissue from 21-day old chickens was evaluated using polyclonal primary antibodies against CD3 ([…], Dako, 1:100 dilution, 30 min at room temperature), followed by incubation with a secondary labelled polymer-HRP anti-rabbit antibody (Envision + System-HRP (DAB) ([…]), 30 min at room temperature). Slides were evaluated using the computer-based image analysis program, LAS V4.1. The CD3^+ area percentage in the duodenal tissue was quantified using four representative fields of view per intestinal section (10x objective).

jejunal microbiota = experiment: 16S rRNA gene sequencing, microbiota composition in the jejunum; type: in vivo, Ross 308 broiler chickens
caecal microbiota = experiment: 16S rRNA gene sequencing, microbiota composition in the caecum; type: in vivo, Ross 308 broiler chickens
T84 cells = experiment: Cell viability assay (neutral red uptake), T84; type: cell-based, human; details: 0.1 µg berberine/mL medium
Description: Caco-2 cells (human intestinal epithelial cells) were cultured in MEM (Gibco, Paisley, United Kingdom) supplemented with 10% Fetal Bovine Serum (FBS), 1% L-glutamine (Gibco), 1% MEM NEAA (Gibco) and 1% penicillin/streptomycin (P/S) (Gibco). T84 cells (human intestinal epithelial cells) were cultured in 1:1 DMEM/F12 (Gibco) supplemented with 10% FBS, 1% L-glutamine and 1% P/S (37°C, 5% CO2). The neutral red uptake assay was employed to evaluate the potential cytotoxicity of berberine ([Repetto et al., 2008]). Briefly, Caco-2 and T84 were seeded at 2 × 10^5 cells/well and 5 × 10^4 cells/well respectively in 96-well plates (Greiner Bio-one, Frickenhausen, Germany) and cultivated for 24 h in antibiotic-free medium (treatment medium) for attachment. […] A 10-fold dilution of sodium dodecyl sulfate (Sigma-Aldrich), ranging from 10 mg/mL to 10^−6 mg/mL was used a positive control. Cells were washed with 200 µL pre-warmed HBSS(+) (Gibco) and then treated with 150 µL of Neutral Red medium, consisting of 1:80 Neutral Red solution 0.33% (Sigma-Aldrich)/treatment medium for 3 h. Cells were washed in 200 µL HBSS(+) and treated with 100 µL of Neutral Red Desorb solution, consisting of 1% glacial acetic acid (Merck, Darmstadt, Germany), 50% ethanol (95%, Chem-Lab, Zedelgem, Belgium) and 49% deionized water.

[1] = 0.1 g berberine/kg feed vs normal diet, 21 days, LinDA-normalized abundance
[2] = 0.1 g berberine/kg feed, 21 days
[3] = 0.5 g berberine/kg feed vs normal diet, 21 days, LinDA-normalized abundance
[4] = 0.5 g berberine/kg feed, 21 days
[5] = 1 g berberine/kg feed vs normal diet, 21 days, LinDA-normalized abundance

## COc1ccc2cc3[n+](cc2c1OC)CCc1cc2c(cc1-3)OCO2 [Berberine, Berberine chloride]
CD3+ T-cells; 0.1 g berberine/kg feed
  CD3+ area percentage: 8.39 ± 1.05
CD3+ T-cells; 0.5 g berberine/kg feed
  CD3+ area percentage: 8.89 ± 2.09
CD3+ T-cells; 1 g berberine/kg feed
  CD3+ area percentage: 7.11 ± 2.18
Jejunal microbiota; [1]
  L2 FC Butyricicoccus, 0.1 vs 0: -2.02
  L2 FC Curtobacterium, 0.1 vs 0: -2.73
  L2 FC Gordonibacter, 0.1 vs 0: -2.71
Jejunal microbiota; [2]
  Mean relative abundance (%) Butyricicoccus: 0.22%
  Mean relative abundance (%) Curtobacterium: 0.01%
  Mean relative abundance (%) Gordonibacter: 0.01%
  Mean relative abundance of Bacillaceae: 0.03%
  Mean relative abundance of Burkholderiaceae: 6.47%
  Mean relative abundance of Peptostreptococcaceae: 6.37%
  Mean relative abundance of Pseudomonadaceae: 1.71%
  Mean relative abundance of Ruminococcaceae: 3.73%
  Mean relative abundance of uncultured bacterium family (Tenericutes, Mollicutes RF39): 0.01%
Jejunal microbiota; 0.1 vs 0 g berberine/kg feed
  L2FC of LinDA-normalized abundance of Bacillaceae: 3.45
  L2FC of LinDA-normalized abundance of Burkholderiaceae: 3.82
  L2FC of LinDA-normalized abundance of Peptostreptococcaceae: 3.90
  L2FC of LinDA-normalized abundance of Pseudomonadaceae: 3.67
  L2FC of LinDA-normalized abundance of Ruminococcaceae: 2.19
  L2FC of LinDA-normalized abundance of uncultured bacterium family (Tenericutes, Mollicutes RF39): 2.35
Jejunal microbiota; [3]
  L2 FC Butyricicoccus, 0.5 vs 0: -0.78
  L2 FC Curtobacterium, 0.5 vs 0: -1.13
  L2 FC Gordonibacter, 0.5 vs 0: -2.33
Jejunal microbiota; [4]
  Mean relative abundance (%) Butyricicoccus: 0.34%
  Mean relative abundance (%) Curtobacterium: 0.03%
  Mean relative abundance (%) Gordonibacter: 0.00%
  Mean relative abundance of Bacillaceae: 0.04%
  Mean relative abundance of Burkholderiaceae: 5.60%
  Mean relative abundance of Peptostreptococcaceae: 0.52%
  Mean relative abundance of Pseudomonadaceae: 0.35%
  Mean relative abundance of Ruminococcaceae: 4.52%
  Mean relative abundance of uncultured bacterium family (Tenericutes, Mollicutes RF39): 0.02%
Jejunal microbiota; 0.5 vs 0 g berberine/kg feed
  L2FC of LinDA-normalized abundance of Bacillaceae: 1.43
  L2FC of LinDA-normalized abundance of Burkholderiaceae: 0.67
  L2FC of LinDA-normalized abundance of Peptostreptococcaceae: -1.12
  L2FC of LinDA-normalized abundance of Pseudomonadaceae: 0.14
  L2FC of LinDA-normalized abundance of Ruminococcaceae: -0.14
  L2FC of LinDA-normalized abundance of uncultured bacterium family (Tenericutes, Mollicutes RF39): 0.60
Jejunal microbiota; [5]
  L2 FC Butyricicoccus, 1 vs 0: -0.38
  L2 FC Curtobacterium, 1 vs 0: -2.09
  L2 FC Gordonibacter, 1 vs 0: -1.79
Jejunal microbiota; 1 g berberine/kg feed, 21 days
  Mean relative abundance (%) Butyricicoccus: 0.84%
  Mean relative abundance (%) Curtobacterium: 0.06%
  Mean relative abundance (%) Gordonibacter: 0.02%
  Mean relative abundance of Bacillaceae: 0.04%
  Mean relative abundance of Burkholderiaceae: 3.55%
  Mean relative abundance of Peptostreptococcaceae: 0.26%
  Mean relative abundance of Pseudomonadaceae: 0.35%
  Mean relative abundance of Ruminococcaceae: 10.54%
  Mean relative abundance of uncultured bacterium family (Tenericutes, Mollicutes RF39): 0.00%
Jejunal microbiota; 1 vs 0 g berberine/kg feed
  L2FC of LinDA-normalized abundance of Bacillaceae: 0.80
  L2FC of LinDA-normalized abundance of Burkholderiaceae: 1.37
  L2FC of LinDA-normalized abundance of Peptostreptococcaceae: -3.21
  L2FC of LinDA-normalized abundance of Pseudomonadaceae: 1.01
  L2FC of LinDA-normalized abundance of Ruminococcaceae: 1.51
  L2FC of LinDA-normalized abundance of uncultured bacterium family (Tenericutes, Mollicutes RF39): 0.00
Jejunal microbiota; high dose (1 g/kg feed), p = 0.021
  Abundance of phylum Actinobacteria: reduction
Jejunal microbiota; low dose (0.1 g/kg feed), p < 0.001
  Abundance of phylum Actinobacteria: reduction
Caecal microbiota; [1]
  L2 FC ASF356, 0.1 vs 0: 3.88
  L2 FC CHKCI001, 0.1 vs 0: 1.33
  L2 FC Family_ Lachnospiraceae, 0.1 vs 0: -0.10
  L2 FC Fusicatenibacter, 0.1 vs 0: 1.41
  L2 FC uncultured genus of Peptostreptococcaceae, 0.1 vs 0: 0.26
Caecal microbiota; [2]
  Mean relative abundance (%) ASF356: 0.40%
  Mean relative abundance (%) CHKCI001: 0.02%
  Mean relative abundance (%) Family_ Lachnospiraceae: 2.08%
  Mean relative abundance (%) Fusicatenibacter: 0.06%
  Mean relative abundance (%) uncultured genus of Peptostreptococcaceae: 0.63%
  Mean relative abundance of Peptostreptococcaceae: 0.66%
Caecal microbiota; 0.1 vs 0 g berberine/kg feed
  L2FC of LinDA-normalized abundance of Peptostreptococcaceae: 0.02
Caecal microbiota; [3]
  L2 FC ASF356, 0.5 vs 0: 4.47
  L2 FC CHKCI001, 0.5 vs 0: 2.34
  L2 FC Family_ Lachnospiraceae, 0.5 vs 0: 1.25
  L2 FC Fusicatenibacter, 0.5 vs 0: 3.47
  L2 FC uncultured genus of Peptostreptococcaceae, 0.5 vs 0: -0.52
Caecal microbiota; [4]
  Mean relative abundance (%) ASF356: 0.38%
  Mean relative abundance (%) CHKCI001: 0.03%
  Mean relative abundance (%) Family_ Lachnospiraceae: 5.61%
  Mean relative abundance (%) Fusicatenibacter: 0.32%
  Mean relative abundance (%) uncultured genus of Peptostreptococcaceae: 0.54%
  Mean relative abundance of Peptostreptococcaceae: 0.56%
Caecal microbiota; 0.5 vs 0 g berberine/kg feed
  L2FC of LinDA-normalized abundance of Peptostreptococcaceae: -0.55
Caecal microbiota; [5]
  L2 FC ASF356, 1 vs 0: 3.78
  L2 FC CHKCI001, 1 vs 0: 1.13
  L2 FC Family_ Lachnospiraceae, 1 vs 0: 0.72
  L2 FC Fusicatenibacter, 1 vs 0: 2.41
  L2 FC uncultured genus of Peptostreptococcaceae, 1 vs 0: -8.12
Caecal microbiota; 1 g berberine/kg feed, 21 days
  Mean relative abundance (%) ASF356: 0.32%
  Mean relative abundance (%) CHKCI001: 0.02%
  Mean relative abundance (%) Family_ Lachnospiraceae: 5.61%
  Mean relative abundance (%) Fusicatenibacter: 0.12%
  Mean relative abundance (%) uncultured genus of Peptostreptococcaceae: 0.00%
  Mean relative abundance of Peptostreptococcaceae: 0.00%
Caecal microbiota; 1 vs 0 g berberine/kg feed
  L2FC of LinDA-normalized abundance of Peptostreptococcaceae: -7.85
Caecal microbiota; lowest concentration (0.1 g/kg feed), p = 0.041
  Observed number of OTUs: significantly increased
Caecal microbiota; middle concentration (0.5 g/kg feed), p = 0.087
  Bacterial richness (Observed number of OTUs): tended to increase
T84 cells
  Cytotoxicity (Neutral Red Uptake): considered safe
